Laboratory results taken from publication PMC7673538 (PLoS Biology, 2020).
Several values for one entry are separate records, joined by “and”; a condition that tells them apart may be missing. Equal entries are not always repeated. Where two headings read alike, the source gives them in different places.

Columns and labels:
[1] = system: CV-A24; experiment: microbe, parasite or virus in culture; assay type: cell-based, coxsackievirus A24; conditions: Enterovirus C, CVA24, HeLa R19, read-out: EC50 CV-A24
[2] = system: PV-1; experiment: microbe, parasite or virus in culture; assay type: cell-based, poliovirus 1
[3] = system: EV-A71; experiment: microbe, parasite or virus in culture; assay type: cell-based, enterovirus A71
[4] = target: T1, human SERT (Homo sapiens, UniProt P31645); assay type: cell-based; conditions: for SERT, Mean (Figure 8B): Control = 100.00; for SERT, Mean as % (Figure 8B): Control = 100%
T1 construct: expressed in transfected cells; host or cells: HEK293 (gift of Dr. Hoener, F. Hoffmann-La Roche)

[5] = system: representative EVs and RVs; assay type: cell-based
[6] = system: CV-B3; experiment: microbe, parasite or virus in culture; assay type: cell-based, coxsackievirus B3
[7] = target: T2, human NET (Homo sapiens, UniProt P23975); assay type: cell-based; conditions: for NET, Mean (Figure 8B): Control = 100; for NET, Mean as % (Figure 8B): Control = 100%
T2 construct: expressed in transfected cells; host or cells: HEK293 (gift of Dr. Hoener, F. Hoffmann-La Roche)

[8] = system: EV-D68; experiment: microbe, parasite or virus in culture; assay type: cell-based, enterovirus D68

T2 sequence (P23975 whole entry): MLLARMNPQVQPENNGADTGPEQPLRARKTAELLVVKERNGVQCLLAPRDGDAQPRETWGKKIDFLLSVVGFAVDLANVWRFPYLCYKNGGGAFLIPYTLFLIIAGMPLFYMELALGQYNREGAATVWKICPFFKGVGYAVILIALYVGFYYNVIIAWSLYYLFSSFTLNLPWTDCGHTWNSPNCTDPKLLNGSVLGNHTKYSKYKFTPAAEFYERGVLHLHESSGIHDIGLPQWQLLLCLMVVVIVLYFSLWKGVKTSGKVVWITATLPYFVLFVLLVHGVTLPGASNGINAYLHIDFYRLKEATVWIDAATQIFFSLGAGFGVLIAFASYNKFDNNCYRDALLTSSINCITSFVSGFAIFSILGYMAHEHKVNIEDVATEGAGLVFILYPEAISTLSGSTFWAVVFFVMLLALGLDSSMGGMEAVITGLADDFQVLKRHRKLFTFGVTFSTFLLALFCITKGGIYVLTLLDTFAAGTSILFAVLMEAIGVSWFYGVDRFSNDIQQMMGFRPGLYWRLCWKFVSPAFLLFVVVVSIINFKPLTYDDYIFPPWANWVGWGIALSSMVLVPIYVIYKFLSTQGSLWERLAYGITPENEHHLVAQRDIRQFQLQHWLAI
T1 sequence (P31645 whole entry): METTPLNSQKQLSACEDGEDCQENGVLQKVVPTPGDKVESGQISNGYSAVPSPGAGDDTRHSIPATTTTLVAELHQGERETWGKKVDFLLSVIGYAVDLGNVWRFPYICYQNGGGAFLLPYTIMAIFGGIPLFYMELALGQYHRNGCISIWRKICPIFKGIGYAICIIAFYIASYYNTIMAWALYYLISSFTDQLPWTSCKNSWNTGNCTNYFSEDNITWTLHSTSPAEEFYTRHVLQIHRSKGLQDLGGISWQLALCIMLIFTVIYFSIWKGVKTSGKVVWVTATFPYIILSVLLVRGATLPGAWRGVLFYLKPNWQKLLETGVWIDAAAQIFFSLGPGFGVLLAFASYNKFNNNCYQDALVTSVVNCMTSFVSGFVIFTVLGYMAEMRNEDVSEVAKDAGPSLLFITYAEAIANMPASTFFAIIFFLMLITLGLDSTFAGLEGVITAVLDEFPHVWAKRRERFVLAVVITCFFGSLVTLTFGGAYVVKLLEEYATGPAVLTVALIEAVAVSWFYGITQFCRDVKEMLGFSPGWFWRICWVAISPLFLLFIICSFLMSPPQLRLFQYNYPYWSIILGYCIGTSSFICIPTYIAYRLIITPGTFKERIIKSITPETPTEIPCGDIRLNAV

O=C(c1cc[nH]c1)N(Cc1ccc(F)cc1)c1ccccc1 [Compound 12b, N-(4-Fluorobenzyl)-N-phenyl-1H-pyrrole-3-carboxamide]
EC50 [1]: 1330 ± 240 nM
Figure 7 dose-response raw data, PV-1 (triplicate values) ([2]; Concentration 0.0046 µM): 11.045 and 11.5939
Figure 7 dose-response raw data, PV-1 (triplicate values) ([2]; Concentration 0.0137 µM): 11.045 and 11.5939
Figure 7 dose-response raw data, PV-1 (triplicate values) ([2]; Concentration 0.0412 µM): 11.045 and 11.8683 and 12.5543
Figure 7 dose-response raw data, PV-1 (triplicate values) ([2]; Concentration 0.1235 µM): 9.9474 and 11.3195 and 12.0055
Figure 7 dose-response raw data, PV-1 (triplicate values) ([2]; Concentration 0.3704 µM): 13.3775 and 12.0055 and 11.7311
Figure 7 dose-response raw data, PV-1 (triplicate values) ([2]; Concentration 1.1111 µM): 20.2378 and 15.8472 and 16.3961
Figure 7 dose-response raw data, PV-1 (triplicate values) ([2]; Concentration 3.3333 µM): 109.849 and 103.263 and 104.772
Figure 7 dose-response raw data, PV-1 (triplicate values) ([2]; Concentration 11.1111 µM): 100.535 and 102.561 and 105.184
Figure 7 dose-response raw data, PV-1 (triplicate values) ([2]; Concentration 33.3333 µM): 94.7887 and 93.7377 and 106.219
Figure 7 dose-response raw data, PV-1 (triplicate values) ([2]; Concentration 100 µM): 94.2632 and 96.1025 and 105.824
EC50 ([2]; Enterovirus C, HeLa R19, read-out: Table in Figure 7A, Polio, AVERAGE): 1390 nM
EC50 ([2]; Enterovirus C, HeLa R19, read-out: Table in Figure 7A, Polio, exp1-exp3): 1760 nM
EC50 ([2]; read-out: Table in Figure 7A, Polio, exp1-exp3): 1420 nM and 990 nM
Figure 7 dose-response raw data, EV-A71 (triplicate values) ([3]; Concentration 0.0046 µM): 8.524 and 14.1813 and 13.8349
Figure 7 dose-response raw data, EV-A71 (triplicate values) ([3]; Concentration 0.0137 µM): 8.178 and 10.6023 and 11.4104
Figure 7 dose-response raw data, EV-A71 (triplicate values) ([3]; Concentration 0.0412 µM): 8.755 and 10.1405 and 13.8349
Figure 7 dose-response raw data, EV-A71 (triplicate values) ([3]; Concentration 0.1235 µM): 8.6396 and 9.794 and 10.7177
Figure 7 dose-response raw data, EV-A71 (triplicate values) ([3]; Concentration 0.3704 µM): 31.7298 and 16.0285 and 26.5345
Figure 7 dose-response raw data, EV-A71 (triplicate values) ([3]; Concentration 1.1111 µM): 89.9407 and 116.561 and 102.065
Figure 7 dose-response raw data, EV-A71 (triplicate values) ([3]; Concentration 3.3333 µM): 91.1267 and 117.088 and 97.8476
Figure 7 dose-response raw data, EV-A71 (triplicate values) ([3]; Concentration 11.1111 µM): 100.747 and 119.064 and 107.468
Figure 7 dose-response raw data, EV-A71 (triplicate values) ([3]; Concentration 33.3333 µM): 107.747 and 119.064 and 117.468
Figure 7 dose-response raw data, EV-A71 (triplicate values) ([3]; Concentration 100 µM): 110.747 and 119.064 and 107.468
EC50 ([3]; Enterovirus A, EVA71, HeLa R19, read-out: Table in Figure 7A, EV-A71, AVERAGE): 490 nM
SERT, Mean (Figure 8B) ([4]; 1µM): 88.76
SERT, Mean as % (Figure 8B) ([4]; 1µM): 89%
SERT, Mean (Figure 8B) ([4]; 100µM): 102.47
SERT, Mean as % (Figure 8B) ([4]; 100µM): 102%
inhibition of SERT-mediated uptake (in words) ([4]; HEK293 cells expressing human SERT, 1 and 100 μM): neither 12a, 19b, 19d, nor the combined compound 12b inhibited
spectrum of antiviral activity (in words) [5]: improved antiviral profile against all tested viruses
Figure 7 dose-response raw data, CV-B3 (triplicate values) ([6]; Concentration 0.001 µM): 12.7273 and 16.4436 and 14.7652
Figure 7 dose-response raw data, CV-B3 (triplicate values) ([6]; Concentration 0.0046 µM): 88.2521 and 78.519 and 79.7121
Figure 7 dose-response raw data, CV-B3 (triplicate values) ([6]; Concentration 0.0137 µM): 101.732 and 101.506 and 105.007
Figure 7 dose-response raw data, CV-B3 (triplicate values) ([6]; Concentration 0.0412 µM): 102.861 and 101.167 and 103.426
Figure 7 dose-response raw data, CV-B3 (triplicate values) ([6]; Concentration 0.1235 µM): 99.9247 and 100.263 and 102.748
Figure 7 dose-response raw data, CV-B3 (triplicate values) ([6]; Concentration 0.3704 µM): 101.957 and 103.877 and 102.635
Figure 7 dose-response raw data, CV-B3 (triplicate values) ([6]; Concentration 1.1111 µM): 101.393 and 99.9247 and 103.426
Figure 7 dose-response raw data, CV-B3 (triplicate values) ([6]; Concentration 3.3333 µM): 102.974 and 100.151 and 104.555
Figure 7 dose-response raw data, CV-B3 (triplicate values) ([6]; Concentration 10 µM): 101.167 and 95.9721 and 104.668
EC50 ([6]; Enterovirus B, CVB3, HeLa R19, read-out: Table in Figure 7A, CV-B3, AVERAGE): 2.9 nM
EC50 ([6]; Enterovirus B, CVB3, HeLa R19, read-out: Table in Figure 7A, CV-B3, exp1-exp3): 2.98 nM
EC50 ([6]; read-out: Table in Figure 7A, CV-B3, exp1-exp3): 3.2 nM and 2.55 nM
NET, Mean (Figure 8B) ([7]; 1µM): 100
NET, Mean as % (Figure 8B) ([7]; 1µM): 100%
NET, Mean (Figure 8B) ([7]; 100µM): 103.417
NET, Mean as % (Figure 8B) ([7]; 100µM): 103%
inhibition of NET function (in words) ([7]; HEK293 cells expressing human NET, 1 μM or 100 μM): neither 12a, 19b, 19d, nor the combined compound 12b inhibited
Figure 7 dose-response raw data, EV-D68 (triplicate values) ([8]; Concentration 0.001 µM): 11.1333 and 12.4782 and 12.9265
Figure 7 dose-response raw data, EV-D68 (triplicate values) ([8]; Concentration 0.0046 µM): 12.1793 and 12.9265 and 15.0187
Figure 7 dose-response raw data, EV-D68 (triplicate values) ([8]; Concentration 0.0137 µM): 11.1333 and 12.4782 and 12.9265
Figure 7 dose-response raw data, EV-D68 (triplicate values) ([8]; Concentration 0.0412 µM): 10.386 and 11.4321 and 12.9265
